Measured values as given in US9353150B2, “Substituted pyrazino[1′,2′:1 ,5]pyrrolo[2,3-b]-indole-1,4-diones for cancer treatment” (Massachusetts Institute of Technology, priority 2012, dated 2016).
Where two headings read alike, the source gives them in different places.

Columns and labels:
[1] = system: U-937 (hystiocytic lymphoma); assay: 72-hour IC50 determination for non-adherent cells using MTS; format: cell-based, human
Protocol: (§1) Certain synthesized compounds were screened for their ability to induce death in two human cancer cell lines: U-937 (leukemic monocyte lymphoma) and HeLa (cervical cancer).
(§2) Cells were grown in media supplemented with fetal bovine serum (FBS) and antibiotics ([…]). Specifically, experiments were performed using the following cell lines and media compositions: U-937, HeLa, H460, and 786-O (RPMI-1640+10% FBS), and MCF7 (EMEM+10% FBS). Cells were incubated at 37° C. in a 5% CO2, 95% humidity atmosphere.
(§3) In a 96-well plate, compounds were pre-added as DMSO stocks in triplicate to achieve a final concentration of 1%. DMSO and cell-free wells served as the live and dead control, respectively. U-937 (5,000 cells/well) cells were distributed in 100 μL media to the compound-containing plate. After 72 hours, cell viability was assessed by adding 20 μL of a PMS/MTS solution (Cory, A. H.; Owen, T. C.; Barltrop, J. A.; Cory, J. G. Cancer Commun. 1991, 3, 207) to each well, allowing the dye to develop at 37° C. until the live control had processed MTS, and reading the absorbance at λ=490 nm. IC50 values were determined from three or more independent experiments using TableCurve (San Jose, Calif.).

[2] = system: HeLa (cervical carcinoma); assay: 72-hour IC50 determination for adherent cells using sulforhodamine B (SRB); format: cell-based, human
Protocol: as §1, §2
(§4) Adherent cells (HeLa, H460, 786-O, and MCF7) were added into 96-well plates (5,000 cells/well for HeLa cell line; 2,000 cells/well for H460, 786-O, and MCF7 cell lines) in 100 μL media and were allowed to adhere for 2-3 hours. Compounds were solubilized in DMSO as 100× stocks, added directly to the cells (100 μL final volume), and tested over a range of concentrations in triplicate (1% DMSO final) on a half-log scale. Concentrations tested ranged from […] to 10 μM, depending on the potency of the compound. DMSO and cell-free wells served as the live and dead control, respectively. After 72 hours of continuous exposure, the plates were evaluated using the SRB colorimetric assay as described previously (Vichai, V.; Kirtikara, K. Nature Prot. 2006, 1, 1112). Briefly, media was removed from the plate, and cells were fixed by the addition of 100 μL cold 10% trichloroacetic acid in water. After incubating at 4° C. for an hour, the plates were washed in water and allowed to dry. Sulforhodamine B was added as a 0.057% solution in 1% acetic acid (100 μL), and the plates were incubated at room temperature for 30 minutes, washed in 1% acetic acid, and allowed to dry. The dye was solubilized by adding 10 mM Tris base solution (pH 10.5, 200 μL) and incubating at room temperature for 30 minutes. Plates were read at λ=510 nm. IC50 values were determined from three or more independent experiments using TableCurve (San Jose, Calif.).

human cancer cell lines = assay: Anticancer activity in human cancer cell lines, not tied to one cell line; format: cell-based; details: for anticancer activity, in words: human cancer cell lines, 72-hour exposure
Protocol: as §1
Certain provided compounds were tested in culture against a panel of three supplementary human cancer cell lines representing three additional tumor histologies (H460, lung carcinoma; 786-O, renal carcinoma; MCF-7, breast carcinoma). As shown in Table E1-2, the ETPs retain their potency across the cell lines. In some embodiments, a provided compound is active in all cell lines. In some embodiments, a provide compound can be used to selectively target certain cells and/or cancers. […] Without the intention to be limited, Applicant notes that certain cell lines could be more sensitive to provided compounds; for example, U-937 and HeLa are slightly more sensitive to the ETPs than the other three cell lines.
as §4, §3

[3] = Homo sapiens, U-937, 72-hour exposure, MTS, error is standard deviation of the mean, n ≧ 3, read-out: U-937, 72-hour IC50 (Table E1-1)
[4] = Homo sapiens, HeLa, 72-hour exposure, SRB, error is standard deviation of the mean, n ≧ 3, read-out: HeLa, 72-hour IC50 (Table E1-1)
[5] = 72-hour exposure, MTS, error is standard deviation of the mean, n ≧ 3, read-out: U-937, 72-hour IC50 (Table E1-1)
[6] = 72-hour exposure, SRB, error is standard deviation of the mean, n ≧ 3, read-out: HeLa, 72-hour IC50 (Table E1-1)
[7] = Homo sapiens, U-937, 72 h, read-out: U-937, 72-hour IC50 (Table E1-1)
[8] = Homo sapiens, HeLa, 72 h, read-out: HeLa, 72-hour IC50 (Table E1-1)

Row | Structure (SMILES) | IC50 [1, 5] | IC50 [2, 6] | further results
1 | CN1C(=O)[C@@]2(SCc3ccccc3)C[C@]3(c4cn(C(=O)OC(C)(C)C)c5ccccc45)c4ccccc4N(S(=O)(=O)c4ccccc4)[C@@H]3N2C(=O)[C@@H]1SCc1ccccc1 [Compound 43, C3-(N-Boc-indol-3′-yl)bis(benzylthioether)] | – | – | IC50 [1, 3]: > 10 µM; IC50 [2, 4]: > 10 µM; IC50 (human cancer cell lines; Homo sapiens, cell line not named in the sentence (U-937 and HeLa screened), read-out: IC50 (did not display any anticancer activity)): > 10 µM
2 | CSS[C@H]1C(=O)N2[C@H]3N(S(=O)(=O)c4ccccc4)c4ccccc4[C@@]3(c3c[nH]c4ccccc34)C[C@]2(SSC)C(=O)N1C [Compound 46, C3-(Indol-3′-yl)bis(methyldlsulfane)] | – | – | IC50 [1, 3]: 0.0204 ± 0.009 µM; IC50 [2, 4]: 0.0366 ± 0.0039 µM; anticancer activity, in words (human cancer cell lines): competent anticancer agents
3 | CN1C(=O)[C@]2(O)C[C@]3([C@]45C[C@@]6(O)C(=O)N(C)[C@](C)(O)C(=O)N6[C@H]4N(S(=O)(=O)c4ccccc4)c4ccccc45)c4ccccc4N(S(=O)(=O)c4ccccc4)[C@@H]3N2C(=O)[C@@]1(C)O [Compound 22] | > 1 µM | > 10 µM | –
4 | C[C@H]1C(=O)N2[C@@H](C[C@]3([C@]45C[C@H]6C(=O)N(C)[C@@H](C)C(=O)N6[C@H]4N(S(=O)(=O)c4ccccc4)c4ccccc45)c4ccccc4N(S(=O)(=O)c4ccccc4)[C@H]23)C(=O)N1C [Compound 21] | > 1 µM | > 10 µM | –
5 | CN1C(=O)[C@@]2(S)C[C@]3(c4c[nH]c5ccccc45)c4ccccc4N(S(=O)(=O)c4ccccc4)[C@@H]3N2C(=O)[C@H]1O [Compound 48, C3-(Indol-3′-yl) C11-thiohemiaminal] | – | – | IC50 [1, 3]: > 10 µM; IC50 [2, 4]: > 10 µM
6 | CN1C(=O)[C@]2(O)C[C@]3([C@]45C[C@@]6(O)C(=O)N(C)[C@](C)(O[Si](C)(C)C(C)(C)C)C(=O)N6[C@H]4N(S(=O)(=O)c4ccccc4)c4ccccc45)c4ccccc4N(S(=O)(=O)c4ccccc4)[C@@H]3N2C(=O)[C@@]1(C)O[Si](C)(C)C(C)(C)C [Compound 23] | > 1 µM | > 10 µM | –
7 | CC(=O)OC[C@@]1(OC(=O)C(C)C)C(=O)N2[C@H]3N(S(=O)(=O)c4ccccc4)c4ccccc4[C@@]3([C@]34C[C@]5(SSSC(c6ccccc6)(c6ccccc6)c6ccccc6)C(=O)N(C)[C@](COC(C)=O)(OC(=O)C(C)C)C(=O)N5[C@H]3N(S(=O)(=O)c3ccccc3)c3ccccc34)C[C@]2(SSSC(c2ccccc2)(c2ccccc2)c2ccccc2)C(=O)N1C [Compound 19, Dimeric bis(triphenylmethanetrisulfide)] | > 10 µM | > 10 µM | –
8 | CC(C)C(=O)O[C@@H]1C(=O)N2[C@H]3Nc4ccccc4[C@@]3(c3c[nH]c4ccccc34)C[C@]2(SC(=O)C(C)C)C(=O)N1C [Compound 51] | > 10 µM | > 1 µM | –
9 | CN1C(=O)C(=O)N2C(=C[C@]3(c4c[nH]c5ccccc45)c4ccccc4N[C@H]23)C1=O [Compound 52, (+)-Gliocladin C] | – | – | IC50 [1, 7]: > 10 µM; IC50 [2, 8]: > 10 µM
10 | CN1CC(=O)N2[C@@H](C[C@]3(Br)c4ccccc4N(S(=O)(=O)c4ccccc4)[C@H]23)C1=O [Compound 54] | – | – | IC50 [1, 3]: > 10 µM; IC50 [2, 4]: > 10 µM
11 | COCCOCS[C@H]1C(=O)N2[C@H]3N(S(=O)(=O)c4ccccc4)c4ccccc4[C@@]3(c3cn(C(=O)OC(C)(C)C)c4ccccc34)C[C@]2(S)C(=O)N1C [Compound 47, C3-(N-Boc-indol-3′-yl) S15-MEM ether] | > 10 µM | > 10 µM | –
12 | CN1C(=O)[C@@]23C[C@]4(c5cn(C(=O)OC(C)(C)C)c6ccccc56)c5ccccc5N(S(=O)(=O)c5ccccc5)[C@@H]4N2C(=O)[C@@H]1SS3 [Compound 24, C3-(N-Boc-indol-3′-yl) epidithiodiketopiperazine] | – | – | IC50 ([1]; Homo sapiens, U-937, 72 h, read-out: IC50 (U-937)): 0.0028 to 0.0148 µM; IC50 [1, 7]: 0.0059 ± 0.0014 µM; IC50 [2, 8]: 0.075 ± 0.01 µM; IC50 ([2]; Homo sapiens, HeLa, 72 h, read-out: IC50 (HeLa)): 0.022 to 0.075 µM
13 | CN1C(=O)[C@]23C[C@]4(c5c[nH]c6ccccc56)c5ccccc5N(S(=O)(=O)c5ccccc5)[C@@H]4N2C(=O)[C@@]1(C)SS3 [Compound 62, C3-(Indol-3′-yl) epidithiodiketopiperazines] | > 1 µM | > 1 µM | anticancer activity, in words (human cancer cell lines): inactive
14 | CCC[C@]12CC34SC(=S)SC(C)(C(=O)N3C1N(S(=O)(=O)c1ccccc1)c1ccccc12)N(C)C4=O (some centres unmarked) [Compound 67, C3-Propyl dithiepanethiones] | – | – | IC50 [1, 3]: > 1 µM; IC50 [2, 4]: > 1 µM; anticancer activity, in words (human cancer cell lines): inactive
15 | CC(C)[Si](O[C@@H]1C(=O)N2[C@H]3N(S(=O)(=O)c4ccccc4)c4ccccc4[C@@]3(c3c[nH]c4ccccc34)C[C@@]2(O)C(=O)N1C)(C(C)C)C(C)C [Compound 57] | > 10 µM | > 10 µM | –
16 | CC(C)[Si](O[C@@H]1C(=O)N2[C@H]3Nc4ccccc4[C@@]3(c3c[nH]c4ccccc34)C[C@@]2(O)C(=O)N1C)(C(C)C)C(C)C [Compound 58] | > 10 µM | > 10 µM | –
17 | CS[C@H]1C(=O)N2[C@H]3Nc4ccccc4[C@@]3(c3c[nH]c4ccccc34)C[C@]2(SC)C(=O)N1C [Compound 7, (+)-gliocladin B] | > 10 µM | > 10 µM | –
18 | CN1C(=O)[C@]2(O)C[C@]3(c4c[nH]c5ccccc45)c4ccccc4N(S(=O)(=O)c4ccccc4)[C@@H]3N2C(=O)[C@H]1O [Compound 56, C3-(Indol-3′-yl) hexacyclic Diol] | > 10 µM | > 10 µM | –
19 | CC(C)[Si](O[C@@H]1C(=O)N2C(=C[C@]3(c4c[nH]c5ccccc45)c4ccccc4N(C(=O)C(F)(F)F)[C@H]23)C(=O)N1C)(C(C)C)C(C)C [Compound 53] | – | – | IC50 [1, 3]: > 10 µM; IC50 [2, 4]: > 10 µM
20 | CN1CC(=O)N2C(CC3(c4c[nH]c5ccccc45)c4ccccc4N(S(=O)(=O)c4ccccc4)C23)C1=O (centres unmarked) [Compound 59, C3-(indol-3′-yl)-pyrrolidinoindolne] | > 10 µM | > 10 µM | –
21 | COCS[C@]12C[C@]3(c4cn(C(=O)OC(C)(C)C)c5ccccc45)c4ccccc4N(S(=O)(=O)c4ccccc4)[C@@H]3N1C(=O)CN(C)C2=O [Compound 49] | > 10 µM | > 10 µM | –
22 | CC(=O)OC[C@@]1(OC(=O)C(C)C)C(=O)N2[C@H]3Nc4ccccc4[C@@]3([C@]34C[C@]5(SSSC(c6ccccc6)(c6ccccc6)c6ccccc6)C(=O)N(C)[C@](COC(C)=O)(OC(=O)C(C)C)C(=O)N5[C@H]3Nc3ccccc34)C[C@]2(SSSC(c2ccccc2)(c2ccccc2)c2ccccc2)C(=O)N1C [Compound 20] | > 10 µM | > 10 µM | –
23 | COCCOCS[C@H]1C(=O)N2[C@H]3N(S(=O)(=O)c4ccccc4)c4ccccc4[C@@]3(c3cn(C(=O)OC(C)(C)C)c4ccccc34)C[C@]2(SCOCCOC)C(=O)N1C [Compound 42, C3-(N-Boc-indol-3′-yl)bis(S-MEM)ether] | > 10 µM | > 10 µM | –
24 | CC(C)C(=O)O[C@@H]1C(=O)N2[C@H]3N(S(=O)(=O)c4ccccc4)c4ccccc4[C@@]3(c3c[nH]c4ccccc34)C[C@]2(SC(=O)C(C)C)C(=O)N1C [Compound 50] | > 1 µM | > 1 µM | –
25 | CS[C@H]1C(=O)N2[C@H]3N(S(=O)(=O)c4ccccc4)c4ccccc4[C@@]3(c3c[nH]c4ccccc34)C[C@]2(SC)C(=O)N1C [Compound 39] | > 10 µM | > 10 µM | –
